According to patent publication US9359405B2, “Antagonists of the interleukin-1 receptor” (Phlogo ApS, priority 2011, dated 2016):
No end group written: not given here.

Columns and labels:
[1] = system: cerebellar granule neurons; test: Neurite outgrowth in primary cerebellar granule neurons; format: cell-based, rat; details: 24 h, primary cerebellar neurons
Experimental: Cerebellar granular neurons (CGN) were prepared from 3 or 7 postnatal (P) day Wistar rats (Charles River, Sulzfeld, Germany or Taconic, Ejby, Denmark). Cerebella were cleared of meninges and blood vessels, roughly homogenized by chopping, and trypsinized with trypsin from Sigma-Aldrich (Brøndby, Denmark). The neurons were washed in the presence of DNAse 1 and soybean trypsin inhibitor (Sigma-Aldrich), and cellular debris was pelleted by centrifugation before plating. CGNs were plated at a density of 10,000 cells/well onto uncoated eight-well Lab-Tek chamber slides (NUNC, Slangerup, Denmark) in Neurobasal-A medium supplemented with 0.4% (w/v) BSA. Peptides or proteins at various concentrations were added to the medium immediately after plating, and cells were maintained at 37° C. and 5% CO2 for 24 h. Cultures then were fixed, blocked and incubated with polyclonal rabbit antibody against rat GAP-43 (Chemicon, Temecula, Calif., USA) followed by incubation with secondary Alexa Fluor488 goat anti-rabbit antibody (Molecular Probes, Eugene, Oreg., USA) as previously described (Neiiendam et al., 2004). The immunostained cultures were all recorded by computer-assisted fluorescence microscopy using a Nikon Diaphot inverted microscope (Nikon, Japan) equipped with a Nikon Plane 20× objective. Images were captured with a charge-coupled device video camera (Grundig Electronics, Nurnberg, Germany) using the software package Prima developed at the Protein Laboratory (University of Copenhagen, Copenhagen, Denmark). The length of neuronal processes per cell was estimated using the software package Process Length developed at the Protein Laboratory (Ronn et al. 2000). For estimation of neurite outgrowth, at least 200±20 cells were processed for each group in each individual experiment.

[2] = system: STAT signalling induced by IL6, HEK-Blue IL6 cells; test: Target specificity, HEK-Blue IL6 cells; format: cell-based
Excerpt: (§1) IL1RI signaling assay: Commercially available Blue™ Cytokine Reporter Cell technology from InvivoGen (Denmark distributor: Sigma-Aldrich Denmark) was used. It is represented by an expanding family of engineered cell lines designed to provide a simple, rapid, and reliable method of monitoring the activation of signaling pathways induced by key cytokines. HEK-Blue™ IL1β cells are specifically engineered to selectively respond to IL1β, and they feature the secreted embryonic alkaline phosphatase (SEAP) reporter gene under the control of an NF-κB-inducible promoter. […] A target/receptor-specificity of the Ilantafin effect was verified employing HEK-Blue™ IL6 cells.

[3] = system: NF-κB activated by IL1β (IL1RI signaling), HEK-Blue IL1β cells; test: IL1RI signaling assay, HEK-Blue IL1β reporter cells (NF-κB/SEAP); format: cell-based; details: IL1β 1.2 μM
Excerpt: as §1

[4] = system: cerebellar granule neurons; test: Survival assay, cerebellar granule neurons, low-potassium apoptosis; format: cell-based, rat; details: 5 mM KCl
Experimental: Survival assay: Primary cultures of CGN were plated at a density of 100,000 cells/cm2 on poly-L-lysine coated 8-well permanox slides in Neurobasal-A medium (Gibco BRL) supplemented with 2% (v/v) B27, 0.5% (v/v) glutamax, 100 units/mL penicillin, 100 µg/mL streptomycin and KCl, making the final concentration of KCl in the medium 40 mM. 24 hours after plating, cytosine-b-D-arabinofuranoside (Ara-C; Sigma-Aldrich) was added to a final concentration of 10 μM to avoid proliferation of glial cells, after which the neurons were allowed to differentiate for a further 6 days at 37° C. Apoptotic cell death was induced by washing twice and changing the medium to Basal Medium Eagle (BME; Gibco BRL) supplemented with 1% (v/v) glutamine, 100 U/mL penicillin and 100 µg/mL streptomycin, 3.5 g D-glucose/L and 1% (v/v) sodium pyruvate (Gibco BRL) together with various concentrations of peptide. Thereby the concentration of potassium in the cultures was reduced to 5 mM KCl (Ditlevsen et al., 2003). Two days after induction of apoptosis, the cells were fixed with 4% (v/v) formaldehyde and stained with Hoechst 33258 as described for the survival assay employing hippocampal neurons.

IL1RI = target: T1, IL1RI (Homo sapiens, UniProt P14778); test: Kb (s^-1)
T1 construct: The recombinant protein comprising the whole extracellular part of IIL1RI was immobilised on the surface of a CM5 sensor chip
T1 sequence (P14778 18-336): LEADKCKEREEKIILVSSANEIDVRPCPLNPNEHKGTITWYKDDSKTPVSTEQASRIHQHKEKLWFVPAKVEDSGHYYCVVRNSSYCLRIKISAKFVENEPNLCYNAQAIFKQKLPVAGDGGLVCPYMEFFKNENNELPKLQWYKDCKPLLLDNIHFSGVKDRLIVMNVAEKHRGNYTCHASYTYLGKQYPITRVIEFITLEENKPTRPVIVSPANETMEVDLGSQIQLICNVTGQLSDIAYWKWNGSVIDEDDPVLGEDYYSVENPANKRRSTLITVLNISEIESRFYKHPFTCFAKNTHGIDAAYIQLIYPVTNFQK
Excerpt: Table printed on a drawing sheet, Figure 3
Head of the field: Kb (s^-1)
First copying reader's note: Rate and affinity constants for binding to IL1RI; each cell holds the value with its ± error, and Ilantafin is a peptide while ILRa and IL1β are proteins.

[5] = system: collagen-induced arthritis (CIA); test: Collagen-induced arthritis in rats, treatment from day 15 (Example 7); format: in vivo, rat; details: 3.3 and 10 mg/kg s.c. daily from day 15
Excerpt: Rheumatoid arthritis is a chronic, inflammatory, systemic autoimmune disease that affects about 1% of the general population in Western countries. Collagen-induced arthritis (CIA) in rats is a widely employed animal model for the screening of anti-inflammatory compounds. Collagen bovine, type II (CII, Cat.no.20021, Lot 090209, Chondrex, USA), Complete Freund's Adjuvant, containing 0.1% of Mycobacterium tuberculosis (CFA, Cat.no. F5581, Lot 049K8700, Sigma-Aldrich), Incomplete Freund's Adjuvant (IFA, Cat.no. F5506, Lot 058K8702, Sigma). PBS (Panum Institute, Copenhagen University). Isofluran (Baxter). Animals were immunized twice: on day 0 (CII+CFA) and on day 10 (CII+IFA, booster). On day 15 the mean clinical score reached a value of 5.0 and all animals were divided into 3 groups so that the severity of disease (mean clinical score) in all groups was almost equal. The peptide (two doses, 3.3 and 10 mg/kg) was administered subcutaneously daily starting at day 15. The clinical evaluation of the arthritis severity was assessed using the following grading system: O— no redness or swelling in foot and palm; 1—slight swelling or redness in metatarsophalangeal joint and ankle joint foot or palm; 2—progressed swelling/inflammation and redness from ankle to mid foot or in entire palm; 3—swelling/inflammation of entire foot except toes; 4—swelling and inflammation of entire foot including toes.

For SGRKSSKMQA [Ilantafin], the neurite outgrowth [1] was “induce neurite outgrowth in primary cerebellar neurons in a dose-dependent manner”, the “effect on STAT signalling induced by IL6” value [2] was “does not inhibit signaling induced by IL6” and the “inhibition of NF-κB activation induced by IL1β” value [3] was “inhibits activation of macrophages”. The “survival effect compared with IGF-1” value [4] was “comparable with the effect of the neuronal survival factor IGF-1”, the “neuronal survival / cell death (apoptosis) induced by lowering potassium” value ([4]; 2 days) was “reduces neuronal cell death (apoptosis)” and the koff (IL1RI) was 0.000753 s⁻¹. The “clinical manifestations (clinical score) of CIA” value [5] was “abrogates an increase in clinical manifestations of CIA in rats”.
